The target in series [1] is T1, human amylin receptor (amylin 3(a) receptor: human calcitonin receptor + RAMP-3) (Homo sapiens, UniProt O60896+P30988).
T1 construct: expressed in transfected cells; host or cells: BHK570
T1 sequence (P30988 25-474): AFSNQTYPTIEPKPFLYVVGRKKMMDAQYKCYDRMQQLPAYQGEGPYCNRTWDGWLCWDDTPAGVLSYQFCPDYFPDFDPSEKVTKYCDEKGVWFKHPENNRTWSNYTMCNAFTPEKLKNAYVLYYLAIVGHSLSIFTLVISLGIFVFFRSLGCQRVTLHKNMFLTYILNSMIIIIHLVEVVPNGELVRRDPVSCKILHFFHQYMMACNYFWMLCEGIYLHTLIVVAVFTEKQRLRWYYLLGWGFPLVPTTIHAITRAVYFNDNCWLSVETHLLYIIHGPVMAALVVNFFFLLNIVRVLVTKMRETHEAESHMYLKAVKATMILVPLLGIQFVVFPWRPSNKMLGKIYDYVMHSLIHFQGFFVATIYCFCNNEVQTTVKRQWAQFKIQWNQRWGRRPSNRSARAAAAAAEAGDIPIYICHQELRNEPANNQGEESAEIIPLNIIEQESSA
T1 sequence (O60896 24-148 partner): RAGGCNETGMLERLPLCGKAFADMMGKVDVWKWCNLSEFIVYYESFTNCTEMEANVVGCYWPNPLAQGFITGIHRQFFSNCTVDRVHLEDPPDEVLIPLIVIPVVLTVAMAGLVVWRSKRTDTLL
The series is described as follows: Assay (II)a functional CRE-luciferase assay, human amylin receptor. The class given is cell-based. The following applies: Table 2; BHK amylin 3(a)-receptor/CRE-luc cells.

In series [2] the target is T2, human calcitonin receptor (Homo sapiens, UniProt P30988).
T2 construct: expressed in transfected cells; host or cells: BHK570
T2 sequence (P30988 25-474): T1 sequence (P30988 25-474)
As to the kind of experiment: Assay (II)a functional CRE-luciferase assay, human calcitonin receptor. The class given is cell-based. The following applies: Table 7; human calcitonin (CTa) receptor.

Series [3] is described as follows: Assay (IV) determination of solubility. It is filed as physicochemical. The gist of the method: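 Stock ~500 nmol/ml in water; 1:1 with 100 mM buffer, pH 3.0–8.0 (glycylglycine ≤5.0, bistrispropane ≥6.0); 18 h RT; spin; HPLC quantitation of soluble polypeptide.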
[4] abbreviates: bistrispropane buffer, pH 6, pH 6.0, read-out: Solubility pH 6.0.
Setting [5] is: bistrispropane buffer, pH 6.5, pH 6.5, read-out: Solubility pH 6.5.
Where [6] appears, read: bistrispropane buffer, pH 7, pH 7.0, read-out: Solubility pH 7.0.
The mark [7] stands for this setting: bistrispropane buffer, pH 7.5, pH 7.5, read-out: Solubility pH 7.5.
Setting [8] is: bistrispropane buffer, pH 8, pH 8.0, read-out: Solubility pH 8.0.
Setting [9] is: glycylglycine buffer, pH 3, pH 3.0, read-out: Solubility pH 3.0.
Where [10] appears, read: glycylglycine buffer, pH 4, pH 4.0, 18 hours at room temperature, Table 2, read-out: Solubility pH 4.0.
Where [11] appears, read: glycylglycine buffer, pH 4, pH 4.0, read-out: Solubility pH 4.0.
[12] abbreviates: glycylglycine buffer, pH 5, pH 5.0, read-out: Solubility pH 5.0.

In brackets after ≈: the same amount, converted by molar mass. Where two headings read alike, the source gives them in different places. Starred links: 1 amine or outer side, 2 acyl side, 3 side chain; linkers in the order of their positions; H or OH if unused. Positions of bridges follow the written chain, without caps; N, C: chain ends. Residues, ends and D or L forms follow the SMILES beside them. *: point of attachment. C20 diacid = O=C(O)CCCCCCCCCCCCCCCCCCC(=O)*; γGlu = O=C(O)[C@H](CCC(=O)[*:2])N[*:1]

Usually EC50 stands for the concentration needed to bring the measured effect to its halfway point. For orientation: solubility means how much of the substance goes into solution per volume. On to `CC[C@H](C)[C@H](NC(=O)[C@@H]1CCCN1C(=O)CNC(=O)[C@H](Cc1ccccc1)NC(=O)[C@H](CC(N)=O)NC(=O)[C@H](CC(N)=O)NC(=O)[C@H](CO)NC(=O)[C@H](CO)NC(=O)[C@H](Cc1c[nH]cn1)NC(=O)[C@@H](NC(=O)[C@H](CC(C)C)NC(=O)[C@H](Cc1ccccc1)NC(=O)[C@H](CCC(=O)O)NC(=O)[C@H](C)NC(=O)[C@H](CC(C)C)NC(=O)[C@H](CCCNC(=N)N)NC(=O)[C@H](CCC(N)=O)NC(=O)[C@@H](NC(=O)[C@H](C)NC(=O)[C@@H]1CSSC[C@H](NC(=O)[C@H](CCCCN)NC(=O)CC[C@H](NC(=O)CCCCCCCCCCCCCCCCCCC(=O)O)C(=O)O)C(=O)N[C@@H](CC(N)=O)C(=O)N[C@@H]([C@@H](C)O)C(=O)N[C@@H](C)C(=O)N[C@@H]([C@@H](C)O)C(=O)N1)[C@@H](C)O)C(C)C)C(=O)N[C@@H](CC(C)C)C(=O)N1CCC[C@H]1C(=O)N1CCC[C@H]1C(=O)N[C@H](C(=O)N[C@@H](CC(N)=O)C(=O)N[C@H](C(=O)NCC(=O)N[C@@H](CO)C(=O)N[C@@H](Cc1c[nH]cn1)C(=O)N[C@H](C(=O)N[C@@H](Cc1ccc(O)cc1)C(N)=O)[C@@H](C)O)C(C)C)[C@@H](C)O` [Example 93, N-alpha-[(S)-4-Carboxy-4-(19-carboxynonadecanoylamino)butyryl]-[Glu14,His35]-pramlintide] ({C20 diacid-γGlu}-KCNTATCATQRLAEFLVHSSNNFGPILPPTNVGSHTY-NH2; disulfide 2-7 (inferred); C-terminus assumed), for which the EC50 in series [1] is 0.136 nM; in series [2], 0.18 nM. Also, the solubility at 18 h in series [3] (setting [4]) was > 200 µM; in series [3] (setting [5]), 84 µM (≈ 373 µg/mL); in series [3] (setting [6]), 74 µM (≈ 329 µg/mL); in series [3] (setting [7]) it was 163 µM (≈ 724 µg/mL); in series [3] (setting [8]) it was > 200 µM; in series [3] (setting [9]), > 200 µM. For the same compound, the solubility at 18 h in series [3] (setting [10]), in series [3] (setting [11]) and in series [3] (setting [12]) was > 200 µM each time.

As to `CC[C@H](C)[C@H](NC(=O)[C@@H]1CCCN1C(=O)CNC(=O)[C@H](Cc1ccccc1)NC(=O)[C@H](CC(N)=O)NC(=O)[C@H](CC(N)=O)NC(=O)[C@H](CO)NC(=O)[C@H](CO)NC(=O)[C@H](Cc1c[nH]cn1)NC(=O)[C@H](Cc1c[nH]cn1)NC(=O)[C@H](CC(C)C)NC(=O)[C@H](Cc1ccccc1)NC(=O)[C@H](CCC(=O)O)NC(=O)[C@H](C)NC(=O)[C@H](CC(C)C)NC(=O)[C@H](CCCNC(=N)N)NC(=O)[C@H](CCC(N)=O)NC(=O)[C@@H](NC(=O)[C@H](C)NC(=O)[C@@H]1CSSC[C@H](NC(=O)[C@H](CCCCN)NC(=O)[C@H](CCC(=O)O)NC(=O)CC[C@H](NC(=O)CCCCCCCCCCCCCCCCCCC(=O)O)C(=O)O)C(=O)N[C@@H](CC(N)=O)C(=O)N[C@@H]([C@@H](C)O)C(=O)N[C@@H](C)C(=O)N[C@@H]([C@@H](C)O)C(=O)N1)[C@@H](C)O)C(=O)N[C@@H](CC(C)C)C(=O)N1CCC[C@H]1C(=O)N1CCC[C@H]1C(=O)N[C@H](C(=O)N[C@@H](CC(N)=O)C(=O)N[C@H](C(=O)NCC(=O)N[C@@H](CO)C(=O)N[C@@H](CC(N)=O)C(=O)N[C@H](C(=O)N[C@@H](Cc1ccc(O)cc1)C(N)=O)[C@@H](C)O)C(C)C)[C@@H](C)O` [Example 26, N-alpha-[(S)-4-Carboxy-4-(19-carboxynonadecanoylamino)butyryl]-Glu-[Glu14,His17]-pramlintide] ({C20 diacid-γGlu}-EKCNTATCATQRLAEFLHHSSNNFGPILPPTNVGSNTY-NH2; disulfide 3-8 (inferred); C-terminus assumed), the EC50 in series [1] came out at 0.13 nM; in series [2], 0.214 nM. Further, the solubility at 18 h in series [3] (setting [4]) is > 200 µM; in series [3] (setting [5]), > 200 µM; in series [3] (bistrispropane buffer, pH 7, pH 7.0, 18 hours at room temperature, Table 3, read-out: Solubility pH 7.0), > 200 µM; in series [3] (setting [6]), > 200 µM; in series [3] (setting [7]), > 200 µM; in series [3] (setting [8]) it was > 200 µM. For the same compound, the solubility at 18 h in series [3] (setting [9]), in series [3] (setting [10]), in series [3] (setting [11]) and in series [3] (setting [12]) was > 200 µM each time.

The values above are taken from patent US8722849B2, “Polypeptides” (Novo Nordisk A/S, priority 2011, dated 2014).
